Active and inactive are the calls of the source. No cut-off for these calls is given here.
Legend:
Mus musculus [1] = assay: Hypnotic activity in fasted C57BL/6N mouse assessed as increase in pentobarbital-induced sleep duration at 2 mg/kg, po administered 45 mins prior to pentobarbital-induction coadministered with flumazenil by polysomnographic analysis; format: functional, organism-based; set-up: dose 2 mg/kg
Mus musculus [2] = assay: Hypnotic activity in fasted C57BL/6N mouse assessed as increase in pentobarbital-induced sleep duration at 0.5 mg/kg, po administered 45 mins prior to pentobarbital-induction coadministered with flumazenil by polysomnographic analysis; format: functional, organism-based; set-up: dose 0.5 mg/kg
Mus musculus [3] = assay: Hypnotic activity in po dosed fasted C57BL/6N mouse assessed as change in pentobarbital-induced non-rapid eye movement sleep duration at 2 mg/kg, po administered 45 mins prior to pentobarbital-induction measured up to 3 hrs by polysomnographic analysis; format: functional, organism-based; set-up: dose 2 mg/kg
Mus musculus [4] = assay: Hypnotic activity in po dosed fasted C57BL/6N mouse assessed as increase in pentobarbital-induced non-rapid eye movement sleep duration at 2 mg/kg, po administered 45 mins prior to pentobarbital-induction measured up to 2 hrs by polysomnographic analysis; format: functional, organism-based; set-up: dose 2 mg/kg
Mus musculus [5] = assay: Hypnotic activity in fasted C57BL/6N mouse assessed as decrease in pentobarbital-induced sleep latency at 2 mg/kg, po administered 45 mins prior to pentobarbital-induction coadministered with flumazenil by polysomnographic analysis; format: functional, organism-based; set-up: dose 2 mg/kg
Mus musculus [6] = assay: Hypnotic activity in po dosed fasted C57BL/6N mouse assessed as decrease in latency of pentobarbital-induced sleep at 2 mg/kg, po administered 45 mins prior to pentobarbital-induction by polysomnographic analysis; format: functional, organism-based; set-up: dose 2 mg/kg
Mus musculus [7] = assay: Hypnotic activity in po dosed fasted C57BL/6N mouse assessed as change in pentobarbital-induced rapid eye movement sleep duration at 2 mg/kg, po administered 45 mins prior to pentobarbital-induction measured up to 3 hrs by polysomnographic analysis; format: functional, organism-based; set-up: dose 2 mg/kg
Mus musculus [8] = assay: Hypnotic activity in po dosed fasted C57BL/6N mouse assessed as decrease in pentobarbital-induced non-rapid eye movement sleep EEG delta activity at 2 mg/kg, po administered 45 mins prior to pentobarbital-induction by polysomnographic analysis; format: functional, organism-based; set-up: dose 2 mg/kg
Mus musculus [9] = assay: Hypnotic activity in po dosed fasted C57BL/6N mouse assessed as decrease in pentobarbital-induced non-rapid eye movement sleep duration at 2 mg/kg, po administered 45 mins prior to pentobarbital-induction by polysomnographic analysis; format: functional, organism-based; set-up: dose 2 mg/kg
Mus musculus [10] = assay: Hypnotic activity in po dosed fasted C57BL/6N mouse assessed as effect on pentobarbital-induced rapid eye movement sleep duration at 2 mg/kg, po administered 45 mins prior to pentobarbital-induction by polysomnographic analysis; format: functional, organism-based; set-up: dose 2 mg/kg
Mus musculus [11] = assay: Hypnotic activity in fasted C57BL/6N mouse assessed as increase in pentobarbital-induced sleep duration at 2.5 mg/kg, po administered 45 mins prior to pentobarbital-induction coadministered with flumazenil by polysomnographic analysis; format: functional, organism-based; set-up: dose 2.5 mg/kg
Mus musculus [12] = assay: Hypnotic activity in fasted C57BL/6N mouse assessed as […] in latency of pentobarbital-induced sleep at 10 mg/kg, po administered 45 mins prior to pentobarbital-induction by polysomnographic analysis; format: functional, organism-based; set-up: dose 10 mg/kg
Mus musculus [13] = assay: Hypnotic activity in fasted C57BL/6N mouse assessed as increase in pentobarbital-induced sleep duration at 10 mg/kg, po administered 45 mins prior to pentobarbital-induction coadministered with flumazenil by polysomnographic analysis; format: functional, organism-based; set-up: dose 10 mg/kg
Mus musculus [14] = assay: Hypnotic activity in fasted C57BL/6N mouse assessed as decrease in pentobarbital-induced sleep latency at 10 mg/kg, po administered 45 mins prior to pentobarbital-induction coadministered with flumazenil by polysomnographic analysis; format: functional, organism-based; set-up: dose 10 mg/kg
Mus musculus [15] = assay: Hypnotic activity in fasted C57BL/6N mouse assessed as increase in pentobarbital-induced sleep duration at 10 mg/kg, po administered 45 mins prior to pentobarbital-induction by polysomnographic analysis; format: functional, organism-based; set-up: dose 10 mg/kg
Mus musculus [16] = assay: Hypnotic activity in fasted C57BL/6N mouse assessed as […] in latency of pentobarbital-induced sleep at 50 mg/kg, po administered 45 mins prior to pentobarbital-induction by polysomnographic analysis; format: functional, organism-based; set-up: dose 50 mg/kg
Mus musculus [17] = assay: Hypnotic activity in po dosed fasted C57BL/6N mouse assessed as increase in pentobarbital-induced sleep duration administered 45 mins prior to pentobarbital-induction by polysomnographic analysis; format: functional, organism-based
Mus musculus [18] = assay: Hypnotic activity in fasted C57BL/6N mouse assessed as decrease in latency of pentobarbital-induced sleep at 50 mg/kg, po administered 45 mins prior to pentobarbital-induction coadministered with flumazenil by polysomnographic analysis; format: functional, organism-based; set-up: dose 50 mg/kg
[19] = Displacement of [3H]flumazenil from GABA(A)-BZD receptor in Sprague-Dawley rat cerebral cortex membranes after 40 mins by liquid scintillation counting; format: cell membranes, Membrane
Mus musculus [20] = assay: Hypnotic activity in po dosed fasted C57BL/6N mouse assessed as decrease in latency of pentobarbital-induced sleep administered 45 mins prior to pentobarbital-induction by polysomnographic analysis; format: functional, organism-based
Mus musculus [21] = assay: Hypnotic activity in fasted C57BL/6N mouse assessed as increase in pentobarbital-induced sleep duration at 50 mg/kg, po administered 45 mins prior to pentobarbital-induction by polysomnographic analysis; format: functional, organism-based; set-up: dose 50 mg/kg
Mus musculus [22] = assay: Hypnotic activity in fasted C57BL/6N mouse assessed as increase in pentobarbital-induced sleep duration at 50 mg/kg, po administered 45 mins prior to pentobarbital-induction coadministered with flumazenil by polysomnographic analysis; format: functional, organism-based; set-up: dose 50 mg/kg

SMILES: CN1C(=O)CN=C(c2ccccc2)c2cc(Cl)ccc21
- Activity (Mus musculus [1]): inactive
- Activity (Mus musculus [2]): inactive
- Activity (Mus musculus [3]): inactive
- Activity (Mus musculus [4]): Active
- Activity (Mus musculus [5]): inactive
- Activity (Mus musculus [6]): Active
- Activity (Mus musculus [7]): inactive
- Activity (Mus musculus [8]): Active
- Activity (Mus musculus [9]): Active
- Activity (Mus musculus [10]): inactive

SMILES: Cc1ccc(-c2nc3ccc(C)cn3c2CC(=O)N(C)C)cc1
- Activity (Mus musculus [11]): inactive
- Activity (Mus musculus [12]): Active
- Activity (Mus musculus [13]): inactive
- Activity (Mus musculus [14]): inactive
- Activity (Mus musculus [15]): Active

SMILES: CC(C)=CCc1cc([C@@H]2CC(=O)c3ccc(O)c(CC=C(C)C)c3O2)ccc1O [GLABROL]
- Activity (Mus musculus [16]): Active
- Activity (Mus musculus [17]): Dose-dependent effect
- Activity (Mus musculus [18]): inactive
- Ki [19]: 1630 nM
- Activity (Mus musculus [20]): Dose-dependent effect
- Activity (Mus musculus [21]): Active
- Activity (Mus musculus [22]): inactive

From ChEMBL document CHEMBL2040762, “Hypnotic effects and GABAergic mechanism of licorice (Glycyrrhiza glabra) ethanol extract and its major flavonoid constituent glabrol” (Bioorg Med Chem, 2012)
